Results from patent US20070275968A1, “Substituted Biphenyl Derivative” (priority 2004, published 2007).

First: Cc1ccc(-c2cccc(-c3nc(C(C)C)[nH]c3-c3cccc(C)n3)c2)cc1 [Example 3, 2-[2-Isopropyl-4-(4′-methyl-1,1′-biphenyl-3-yl)-1H-imidazol-5-yl]-6-methylpyridine]
Second: Cc1cccc(-c2[nH]c(C(C)C)nc2-c2cccc(-c3ccc(F)cc3)c2)n1 [Example 8, 2-[4-(4′-Fluoro-1,1′-biphenyl-3-yl)-2-isopropyl-1H-imidazol-5-yl]-6-methylpyridine]
The melting point of the first is lower: 76 to 79 °C for the first, 83 to 85 °C for the second.

First: COc1ccc(-c2cccc(-c3nc(C(C)C)[nH]c3-c3cccc(C)n3)c2)cc1 [Example 4, 2-[2-Isopropyl-4-(4′-methoxy-1,1′-biphenyl-3-yl)-1H-imidazol-5-yl]-6-methylpyridine]
Second: Cc1cccc(-c2[nH]c(C(C)C)nc2-c2cccc(-c3ccc(N)cc3)c2)n1 [Example 28, 2-[2-Isopropyl-4-(4′-amino-1,1′-biphenyl-3-yl)-1H-imidazol-5-yl]-6-methylpyridine]
The melting point of the first is lower: 75 to 77 °C for the first, 107 to 117 °C for the second.

Compared with Cc1cccc(-c2[nH]c(C(C)C)nc2-c2cccc(-c3ccc(C(F)(F)F)cc3)c2)n1 [Example 5, 2-{2-Isopropyl-4-[4′-(trifluoromethyl)-1,1′-biphenyl-3-yl]-1H-imidazol-5-yl}-6-methylpyridine], Cc1cccc(-c2[nH]c(C(C)C)nc2-c2cccc(-c3ccc(OC(F)(F)F)cc3)c2)n1 [Example 10, 2-{2-Isopropyl-4-[4′-(trifluoromethoxy)-1,1′-biphenyl-3-yl]-1H-imidazol-5-yl}-6-methylpyridine] is higher in melting point: 91 to 93 °C for the first, 120 to 122 °C for the second.

First: Cc1cccc(-c2[nH]c(C(C)C)nc2-c2cccc(-c3ccccc3F)c2)n1 [Example 6, 2-[4-(2′-Fluoro-1,1′-biphenyl-3-yl)-2-isopropyl-1H-imidazol-5-yl]-6-methylpyridine]
Second: Cc1cccc(-c2[nH]c(C(C)C)nc2-c2cccc(-c3ccc(F)cc3F)c2)n1 [Example 9, 2-[4-(2′,4′-Difluoro-1,1′-biphenyl-3-yl)-2-isopropyl-1H-imidazol-5-yl]-6-methylpyridine]
The melting point of the first is higher: 153 to 155 °C for the first, 70 to 72 °C for the second.

First: Cc1cccc(-c2[nH]c(C(C)C)nc2-c2cccc(-c3cccc(F)c3)c2)n1 [Example 7, 2-[4-(3′-Fluoro-1,1′-biphenyl-3-yl)-2-isopropyl-1H-imidazol-5-yl]-6-methylpyridine]
Second: Cc1cccc(-c2[nH]c(C(C)C)nc2-c2cccc(-c3cccc(S(C)(=O)=O)c3)c2)n1 [Example 18, 2-{2-Isopropyl-4-[3′-(methylsulfonyl)-1,1′-biphenyl-3-yl]-1H-imidazol-5-yl}-6-methylpyridine]
The melting point of the first is higher: 140 to 142 °C for the first, 97 to 100 °C for the second.

Compared with Cc1cccc(-c2[nH]c(C(C)C)nc2-c2cccc(-c3cccnc3)c2)n1 [Example 11, 2-[2-Isopropyl-4-(3-pyridin-3-ylphenyl)-1H-imidazol-5-yl]-6-methylpyridine], Cc1cccc(-c2[nH]c(C(C)C)nc2-c2cccc(-c3ccncc3)c2)n1 [Example 12, 2-[2-Isopropyl-4-(3-pyridin-4-ylphenyl)-1H-imidazol-5-yl]-6-methylpyridine] is higher in melting point: 74 to 77 °C for the first, 84 to 86 °C for the second.

First: COc1ccc(-c2cccc(-c3nc(C(C)C)[nH]c3-c3cccc(C)n3)c2)cn1 [Example 13, 5-{3-[2-Isopropyl-5-(6-methylpyridin-2-yl)-1H-imidazol-4-yl]phenyl}-2-methoxypyridine]
Second: CSc1ccc(-c2cccc(-c3nc(C(C)C)[nH]c3-c3cccc(C)n3)c2)cc1 [Example 16, 2-{2-Isopropyl-4-[4′-(methylthio)-1,1′-biphenyl-3-yl]-1H-imidazol-5-yl}-6-methylpyridine]
The melting point of the first is lower: 72 to 74 °C for the first, 80 to 82 °C for the second.

First: Cc1cccc(-c2[nH]c(C(C)C)nc2-c2cccc(-c3ccsc3)c2)n1 [Example 14, 2-[2-Isopropyl-4-(3-thien-3-ylphenyl)-1H-imidazol-5-yl]-6-methylpyridine]
Second: Cc1cccc(-c2[nH]c(C(C)C)nc2-c2cccc(-c3cccs3)c2)n1 [Example 20, 2-[2-Isopropyl-4-(3-thien-2-ylphenyl)-1H-imidazol-5-yl]-6-methylpyridine]
The melting point of the first is higher: 83 to 85 °C for the first, 73 to 76 °C for the second.

Cc1cccc(-c2[nH]c(C(C)C)nc2-c2cccc(-c3ccc(NS(C)(=O)=O)cc3)c2)n1 [Example 15, N-{3′-[2-Isopropyl-5-(6-methylpyridin-2-yl)-1H-imidazol-4-yl]-1,1′-biphenyl-4-yl}methanesulfonamide] and CCS(=O)(=O)Nc1ccc(-c2cccc(-c3nc(C(C)C)[nH]c3-c3cccc(C)n3)c2)cc1 [Example 30, N-{3′-[2-Isopropyl-5-(6-methylpyridin-2-yl)-1H-imidazol-4-yl]-1,1′-biphenyl-4-yl}ethanesulfonamide] cannot be ordered by melting point: 128 to 130 °C for the first, 123 to 135 °C for the second.

Compared with Cc1cccc(-c2[nH]c(C(C)C)nc2-c2cccc(-c3cccc(NS(C)(=O)=O)c3)c2)n1 [Example 19, N-{3′-[2-Isopropyl-5-(6-methylpyridin-2-yl)-1H-imidazol-4-yl]-1,1′-biphenyl-3-yl}methanesulfonamide], Cc1cccc(-c2[nH]c(C(C)C)nc2-c2cccc(-c3cccc(S(N)(=O)=O)c3)c2)n1 [Example 42, 3′-[2-Isopropyl-5-(6-methylpyridin-2-yl)-1H-imidazol-4-yl]-1,1′-biphenyl-3-sulfonamide] is higher in melting point: 108 to 112 °C for the first, 123 to 126 °C for the second.

First: Cc1cccc(-c2[nH]c(C(C)C)nc2-c2cccc(-c3ccoc3)c2)n1 [Example 21, 2-{4-[3-(3-Furyl)phenyl]-2-isopropyl-1H-imidazol-5-yl}-6-methylpyridine]
Second: Cc1cccc(-c2[nH]c(C(C)C)nc2-c2cccc(-c3ccc[nH]3)c2)n1 [Example 23, 2-{2-Isopropyl-4-[3-(1H-pyrrol-2-yl)phenyl]-1H-imidazol-5-yl}-6-methylpyridine]
The melting point of the first is lower: 74 to 78 °C for the first, 103 to 107 °C for the second.

First: CC(=O)c1ccc(-c2cccc(-c3nc(C(C)C)[nH]c3-c3cccc(C)n3)c2)cc1 [Example 24, 1-{3′-[2-Isopropyl-5-(6-methylpyridin-2-yl)-1H-imidazol-4-yl]-1,1′-biphenyl-4-yl}ethanone]
Second: CC(=O)Nc1ccc(-c2cccc(-c3nc(C(C)C)[nH]c3-c3cccc(C)n3)c2)cc1 [Example 32, N-{3′-[2-Isopropyl-5-(6-methylpyridin-2-yl)-1H-imidazol-4-yl]-1,1′-biphenyl-4-yl}acetamide]
The melting point of the first is lower: 84 to 87 °C for the first, 140 to 145 °C for the second.

First: CCS(=O)(=O)c1ccc(-c2cccc(-c3nc(C(C)C)[nH]c3-c3cccc(C)n3)c2)cc1 [Example 25, 2-{2-Isopropyl-4-[4′-(ethylsulfonyl)-1,1′-biphenyl-3-yl]-1H-imidazol-5-yl}-6-methylpyridine]
Second: CNS(=O)(=O)c1ccc(-c2cccc(-c3nc(C(C)C)[nH]c3-c3cccc(C)n3)c2)cc1 [Example 38, 3′-[2-Isopropyl-5-(6-methylpyridin-2-yl)-1H-imidazol-4-yl]-N-methyl-1,1′-biphenyl-4-sulfonamide]
The melting point of the first is higher: 103 to 116 °C for the first, 96 to 100 °C for the second.

Cc1cccc(-c2[nH]c(C(C)C)nc2-c2cccc(-c3ccc([N+](=O)[O-])cc3)c2)n1 [Example 27, 2-[2-Isopropyl-4-(4′-nitro-1,1′-biphenyl-3-yl)-1H-imidazol-5-yl]-6-methylpyridine] and Cc1cccc(-c2[nH]c(C(C)C)nc2-c2cccc(-c3ccc(S(=O)(=O)N(C)C)cc3)c2)n1 [Example 39, 3′-[2-Isopropyl-5-(6-methylpyridin-2-yl)-1H-imidazol-4-yl]-N,N-dimethyl-1,1′-biphenyl-4-sulfonamide] cannot be ordered by melting point: 95 to 105 °C for the first, 93 to 96 °C for the second.

Compared with Cc1cccc(-c2[nH]c(C(C)C)nc2-c2cccc(-c3ccc(NS(=O)(=O)C4CC4)cc3)c2)n1 [Example 31, N-{3′-[2-Isopropyl-5-(6-methylpyridin-2-yl)-1H-imidazol-4-yl]-1,1′-biphenyl-4-yl}cyclopropylsulfonamide], Cc1cccc(-c2[nH]c(C(C)C)nc2-c2cccc(-c3ccc(NC(=O)C(C)(C)O)cc3)c2)n1 [Example 34, 2-Hydroxy-N-{3′-[2-isopropyl-5-(6-methylpyridin-2-yl)-1H-imidazol-4-yl]-1,1′-biphenyl-4-yl}-2-methylpropanamide] is lower in melting point: 135 to 145 °C for the first, 123 to 135 °C for the second.

First: Cc1cccc(-c2[nH]c(C(C)C)nc2-c2cccc(-c3ccc(C(N)=O)cn3)c2)n1 [Example 36, 6-{3-[2-Isopropyl-5-(6-methylpyridin-2-yl)-1H-imidazol-4-yl]phenyl}nicotinamide]
Second: Cc1cccc(-c2[nH]c(C(C)C)nc2-c2cccc(-c3ccccn3)c2)n1 [Example 43, 2-[2-Isopropyl-4-(3-pyridin-2-ylphenyl)-1H-imidazol-5-yl]-6-methylpyridine]
The melting point of the first is higher: 138 to 144 °C for the first, 97 to 100 °C for the second.

First: Cc1cccc(-c2nc(C(C)C)[nH]c2-c2cccc(-c3ccc(S(N)(=O)=O)cc3)c2)n1 [Example 37, 3′-[2-Isopropyl-4-(6-methylpyridin-2-yl)-1H-imidazol-5-yl]-1,1′-biphenyl-4-sulfonamide]
Second: Cc1cccc(-c2[nH]c(C(C)C)nc2-c2cccc(-c3ccc(S(=O)(=O)N4CCOCC4)cc3)c2)n1 [Example 40, 4-({3′-[2-Isopropyl-5-(6-methylpyridin-2-yl)-1H-imidazol-4-yl]-1,1′-biphenyl-4-yl}sulfonyl)morpholine]
The melting point of the first is higher: 255 to 258 °C for the first, 88 to 92 °C for the second.

First: Cc1cccc(-c2[nH]c(C(C)C)nc2-c2cccc(-c3ccc(S(=O)(=O)N4CCN(C)CC4)cc3)c2)n1 [Example 41, 1-({3′-[2-Isopropyl-5-(6-methylpyridin-2-yl)-1H-imidazol-4-yl]-1,1′-biphenyl-4-yl}sulfonyl)-4-methylpiperazine]
Second: Cc1cccc(-c2[nH]c(C(C)C)nc2-c2cccc(-c3ccc(C(=O)NC4CCOCC4)cc3)c2)n1 [Example 44, N-(Tetrahydropyran-4-yl)-4-{3-[2-isopropyl-5-(6-methylpyridin-2-yl)-1H-imidazol-4-yl]-phenyl}benzamide]
The melting point of the first is lower: 110 to 116 °C for the first, 140 °C for the second.

For Cc1cccc(-c2[nH]c(C(C)C)nc2-c2cccc(-c3ccc(CN)cc3)c2)n1 [Example 29, 1-{3′-[2-Isopropyl-5-(6-methylpyridin-2-yl)-1H-imidazol-4-yl]-1,1′-biphenyl-4-yl}methanamine], the melting point was 113 to 123 °C (dec.).
